Read-outs that look alike come from different tables or passages of the source.

The test system of experiment [1] is EV71. The experiment can be described thus: Inhibition of EV71 replication in RD cells at 0.1, 1, 10 and 100 μM (CPE, crystal violet). Also noted: key to Inhibition of EV71 replication: −: no activity. Format: cell-based, Enterovirus 71. On the procedure: Inhibitory effect of each P2X receptor antagonists and agonists on EV71 replication was measured at 0.1, 1, 10, and 100 μM. Specific procedures refer to “1” of Example 1. after infection, however, cells need to be incubated for 3˜4 days, stained with crystal violet, and observed under optical microscope to determine whether or not CPE (cytopathic effect) was present. In addition, the effect of compounds at each concentration on cytotoxicity to RD cells was determined. After culturing RD cells in various concentrations of compounds for 3˜4 days, stained with crystal violet, and observed under optical microscope to observe whether or not cell layer was damaged. Compounds capable of protecting cells from infection without damage of healthy cell layer can inhibit EV71 replication in RD cells.

The test system of experiment [2] is EV71. The experiment can be described thus: Effects of other antagonists and agonists on EV71 (Table 9). The format is cell-based, Enterovirus 71. Also noted: key: “NO” indicates there is negative.
The next experiment has as its target T1, P2X1 receptor (Homo sapiens, UniProt P51575).
T1 sequence (P51575 1-399): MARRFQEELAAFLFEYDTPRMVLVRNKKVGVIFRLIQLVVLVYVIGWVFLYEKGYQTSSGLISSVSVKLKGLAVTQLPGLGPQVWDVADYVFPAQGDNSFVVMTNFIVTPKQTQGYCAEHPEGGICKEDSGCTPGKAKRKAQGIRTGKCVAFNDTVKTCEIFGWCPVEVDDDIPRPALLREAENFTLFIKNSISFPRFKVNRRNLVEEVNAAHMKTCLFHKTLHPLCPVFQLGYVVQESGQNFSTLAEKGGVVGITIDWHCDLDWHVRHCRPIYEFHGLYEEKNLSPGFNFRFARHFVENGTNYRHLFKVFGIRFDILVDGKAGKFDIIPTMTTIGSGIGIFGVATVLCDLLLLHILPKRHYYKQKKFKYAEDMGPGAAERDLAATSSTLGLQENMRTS
Also noted: key: −: no activity; +: activating concentration >10 μM; ++: activating concentration 1~10 μM; +++: activating concentration <1 μM. Conditions: cited from earlier work.

The next experiment has as its target T2, P2X2 receptor (Homo sapiens, UniProt Q9UBL9).
T2 sequence (Q9UBL9 1-471): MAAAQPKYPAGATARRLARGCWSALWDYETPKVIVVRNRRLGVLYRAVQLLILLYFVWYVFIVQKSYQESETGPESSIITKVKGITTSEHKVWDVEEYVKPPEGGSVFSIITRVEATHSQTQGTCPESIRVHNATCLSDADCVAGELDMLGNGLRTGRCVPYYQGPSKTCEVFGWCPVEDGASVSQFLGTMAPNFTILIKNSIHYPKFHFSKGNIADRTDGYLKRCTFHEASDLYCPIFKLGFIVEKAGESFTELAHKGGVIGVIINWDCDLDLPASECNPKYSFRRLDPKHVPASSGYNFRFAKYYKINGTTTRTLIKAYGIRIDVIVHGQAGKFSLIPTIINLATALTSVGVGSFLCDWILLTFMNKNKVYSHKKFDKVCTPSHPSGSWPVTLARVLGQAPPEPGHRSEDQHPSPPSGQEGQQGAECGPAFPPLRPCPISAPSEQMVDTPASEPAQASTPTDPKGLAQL
Also noted: key: −: no activity; +: activating concentration >10 μM; ++: activating concentration 1~10 μM; +++: activating concentration <1 μM. The settings on record: cited from earlier work.

Another experiment addresses T3, P2X3 receptor (Homo sapiens, UniProt P56373).
T3 sequence (P56373 1-397): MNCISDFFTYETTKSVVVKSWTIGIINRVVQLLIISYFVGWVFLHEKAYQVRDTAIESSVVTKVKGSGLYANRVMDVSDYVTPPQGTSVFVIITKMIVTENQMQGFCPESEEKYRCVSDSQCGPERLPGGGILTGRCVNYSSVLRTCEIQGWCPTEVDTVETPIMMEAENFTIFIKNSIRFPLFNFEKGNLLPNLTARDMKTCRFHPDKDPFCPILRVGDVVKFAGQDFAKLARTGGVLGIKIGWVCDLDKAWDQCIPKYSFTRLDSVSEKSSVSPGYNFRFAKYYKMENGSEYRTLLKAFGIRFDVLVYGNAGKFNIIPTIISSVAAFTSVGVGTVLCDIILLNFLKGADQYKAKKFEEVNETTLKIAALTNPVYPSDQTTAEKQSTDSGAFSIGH
The settings on record: cited from earlier work.

Another experiment concerns the target T4, P2X4 receptor (Homo sapiens, UniProt Q99571).
T4 sequence (Q99571 1-388): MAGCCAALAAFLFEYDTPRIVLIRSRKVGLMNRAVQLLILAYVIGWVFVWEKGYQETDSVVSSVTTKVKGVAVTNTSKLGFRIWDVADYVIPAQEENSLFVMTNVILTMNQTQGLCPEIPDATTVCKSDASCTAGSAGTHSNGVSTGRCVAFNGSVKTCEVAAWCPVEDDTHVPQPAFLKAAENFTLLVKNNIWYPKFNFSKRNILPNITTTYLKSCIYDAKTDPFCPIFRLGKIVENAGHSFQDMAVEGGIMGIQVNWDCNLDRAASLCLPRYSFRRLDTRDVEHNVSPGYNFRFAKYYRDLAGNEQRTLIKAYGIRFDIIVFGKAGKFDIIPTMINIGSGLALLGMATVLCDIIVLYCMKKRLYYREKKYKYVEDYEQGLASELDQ
The settings on record: cited from earlier work.

A further experiment addresses P2X5 receptor (Homo sapiens, UniProt Q93086). Conditions: cited from earlier work.
The target of the next experiment is T5, P2X7 receptor (Homo sapiens, UniProt Q99572).
T5 sequence (Q99572 1-595): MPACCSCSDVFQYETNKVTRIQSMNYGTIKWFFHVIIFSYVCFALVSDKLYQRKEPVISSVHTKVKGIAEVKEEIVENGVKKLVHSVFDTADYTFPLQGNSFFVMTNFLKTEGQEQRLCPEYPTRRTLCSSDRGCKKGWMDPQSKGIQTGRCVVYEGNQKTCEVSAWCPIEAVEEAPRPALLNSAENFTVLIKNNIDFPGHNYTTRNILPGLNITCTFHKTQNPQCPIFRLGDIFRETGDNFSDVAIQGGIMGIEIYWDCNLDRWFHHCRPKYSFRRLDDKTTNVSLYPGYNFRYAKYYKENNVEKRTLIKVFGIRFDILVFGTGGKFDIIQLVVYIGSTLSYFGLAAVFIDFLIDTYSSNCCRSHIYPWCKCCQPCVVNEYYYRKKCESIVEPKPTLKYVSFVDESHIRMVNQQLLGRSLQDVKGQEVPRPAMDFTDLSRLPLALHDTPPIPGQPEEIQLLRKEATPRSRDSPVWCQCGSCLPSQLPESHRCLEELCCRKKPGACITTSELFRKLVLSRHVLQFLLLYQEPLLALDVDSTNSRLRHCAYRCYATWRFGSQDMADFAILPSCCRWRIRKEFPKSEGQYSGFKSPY
Conditions: cited from earlier work.

Sequence of P2X5 receptor (Q93086 whole entry): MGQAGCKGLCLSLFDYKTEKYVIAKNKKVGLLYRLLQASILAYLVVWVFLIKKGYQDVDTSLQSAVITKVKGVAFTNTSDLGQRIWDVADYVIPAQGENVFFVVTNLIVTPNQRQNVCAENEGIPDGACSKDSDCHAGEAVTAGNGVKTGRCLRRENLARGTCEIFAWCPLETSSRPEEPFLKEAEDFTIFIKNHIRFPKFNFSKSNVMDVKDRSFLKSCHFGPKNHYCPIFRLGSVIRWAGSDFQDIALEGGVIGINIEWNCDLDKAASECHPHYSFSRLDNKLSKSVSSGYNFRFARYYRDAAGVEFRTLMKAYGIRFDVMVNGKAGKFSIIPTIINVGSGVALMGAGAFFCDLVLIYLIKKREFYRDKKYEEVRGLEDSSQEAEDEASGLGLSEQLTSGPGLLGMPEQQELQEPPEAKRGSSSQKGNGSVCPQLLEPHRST

Take bzATP: the “Inhibition of EV71 replication” value in the experiment with EV71 [1] (Table 8, agonists) is reported as “−”. Besides, the “EV71 Log10 reduction” value in the experiment on EV71 [2] is “NO”. Also, the “P2X receptors 1” value on P2X1 receptor (Table 8, agonists) was “+++ (+++: activating concentration <1 μM)”; at P2X1 receptor (Table 9, agonists) it was “✓ ✓ ✓ (✓ ✓ ✓ activating concentration <1 μM)”. Moreover, the “P2X receptors 2” value is on record as “++ (++: activating concentration 1~10 μM)” at P2X2 receptor (Table 8, agonists) and “✓ ✓ (✓ ✓ activating concentration 1-10 μM)” on P2X2 receptor (Table 9, agonists). The “P2X receptors 3” value on P2X3 receptor (Table 8, agonists) is “+ (+: activating concentration >10 μM)”; at P2X3 receptor (Table 9, agonists), “✓ (✓ activating concentration >10 μM)”. Also, the “P2X receptors 4” value is recorded as “+++ (+++: activating concentration <1 μM)” on P2X4 receptor (Table 8, agonists) and “✓ ✓ ✓ (✓ ✓ ✓ activating concentration <1 μM)” on P2X4 receptor (Table 9, agonists). Besides, the “P2X receptors 5” value is listed as “++ (++: activating concentration 1~10 μM)” at P2X5 receptor (Table 8, agonists) and “✓ ✓ (✓ ✓ activating concentration 1-10 μM)” at P2X5 receptor (Table 9, agonists). Moreover, the “P2X receptors 7” value was “++ (++: activating concentration 1~10 μM)” on P2X7 receptor (Table 8, agonists) and “✓ ✓ ✓ (✓ ✓ ✓ activating concentration <1 μM)” at P2X7 receptor (Table 9, agonists).
With Ivermectine, the “Inhibition of EV71 replication” value in the experiment with EV71 [1] (Table 8, agonists) is listed as “−”. Moreover, in the experiment with EV71 [2], the “EV71 Log10 reduction” value is listed as “NO”. Besides, the “P2X receptors 4” value was “++ (++: activating concentration 1~10 μM)” on P2X4 receptor (Table 8, agonists) and “✓ ✓ ✓” on P2X4 receptor (Table 9, modulator, no key printed for this class).
For the compound `O=c1ccn([C@@H]2O[C@H](COP(=O)(O)OP(=O)(O)OP(=O)(O)O)[C@@H](O)[C@H]2O)c(=O)[nH]1` [UTP, uridine triphosphate], the “Inhibition of EV71 replication” value with EV71 [1] (Table 8, agonists) is reported as “−”. The “EV71 Log10 reduction” value in the experiment on EV71 [2] is listed as “NO”. The “P2X receptors 1” value on P2X1 receptor (Table 8, agonists) was “−”. Moreover, on P2X2 receptor (Table 8, agonists), the “P2X receptors 2” value is reported as “−”. Also, the “P2X receptors 3” value at P2X3 receptor (Table 8, agonists) is listed as “−”. At P2X4 receptor (Table 8, agonists), the “P2X receptors 4” value is given as “−”. The “P2X receptors 5” value is “+ (+: activating concentration >10 μM)” at P2X5 receptor (Table 8, agonists) and “✓ (✓ activating concentration >10 μM)” on P2X5 receptor (Table 9, agonists).
On to `O=C(Nc1ccc(C(=O)Nc2ccc(C(=O)Nc3ccc(S(=O)(=O)O)c4cc(S(=O)(=O)O)cc(S(=O)(=O)O)c34)cc2)cc1)Nc1ccc(C(=O)Nc2ccc(C(=O)Nc3ccc(S(=O)(=O)O)c4cc(S(=O)(=O)O)cc(S(=O)(=O)O)c34)cc2)cc1` [NF279, 8,8′-(carbonylbis(imino-4,1-phenylenecarbonylimino-4,1-phenylenecarbonylimino))bis(1,3,5-naphthalenetrisulfonic acid)], for which, in the experiment on EV71 [1], the “inhibition of EV71 replication (statement in words)” value was “can also inhibit EV71 replication”. Besides, the “Inhibition of EV71 replication” value with EV71 [1] (Table 8, antagonists) was “+ (+: inhibitory concentration >300 nM)”. Also, the “P2X receptors 1” value at P2X1 receptor (Table 8, antagonists) is “+++ (+++: inhibitory concentration <10 nM)”. Besides, at P2X2 receptor (Table 8, antagonists), the “P2X receptors 2” value was “+ (+: inhibitory concentration >300 nM)”. The “P2X receptors 3” value on P2X3 receptor (Table 8, antagonists) is “+ (+: inhibitory concentration >300 nM)”. Moreover, on P2X4 receptor (Table 8, antagonists), the “P2X receptors 4” value is given as “−”. In addition, at P2X7 receptor (Table 8, antagonists), the “P2X receptors 7” value is on record as “+ (+: inhibitory concentration >300 nM)”.
With `CCOc1ccc(Nc2ccc(/C(=C3C=C/C(=[N+](/CC)Cc4cccc(S(=O)(=O)[O-])c4)C=C/3C)c3ccc(N(CC)Cc4cccc(S(=O)(=O)[O-])c4)cc3C)cc2)cc1.[Na+]` [BBG], the “EV71 Log10 reduction” value in the experiment on EV71 [2] is on record as “NO”. In addition, the “P2X receptors 1” value at P2X1 receptor (Table 9, antagonists) is listed as “✓ (✓ activating concentration >300 nM)”. Further, on P2X2 receptor (Table 9, antagonists), the “P2X receptors 2” value is reported as “✓ (✓ activating concentration >300 nM)”. The “P2X receptors 7” value on P2X7 receptor (Table 9, antagonists) was “✓ ✓ ✓ (✓ ✓ ✓ activating concentration <10 nM)”.
In the case of `Cc1nc(N=Nc2cc(S(=O)(=O)O)ccc2S(=O)(=O)O)c(COP(=O)(O)O)c(C=O)c1O` [iso-PPADS, pyridoxal-phosphate-6-azophenyl-2′,5′-disulphonic acid], the “inhibition of EV71 replication (statement in words)” value with EV71 [1] is “can also inhibit EV71 replication”. In addition, the “Inhibition of EV71 replication” value in the experiment on EV71 [1] (Table 8, antagonists) is reported as “+ (+: inhibitory concentration >300 nM)”. Moreover, at P2X1 receptor (Table 8, antagonists), the “P2X receptors 1” value is “++ (++: inhibitory concentration = 10~300 nM)”. Also, at P2X2 receptor (Table 8, antagonists), the “P2X receptors 2” value was “++ (++: inhibitory concentration = 10~300 nM)”. For the same compound, the “P2X receptors 3” value on P2X3 receptor (Table 8, antagonists) is recorded as “++ (++: inhibitory concentration = 10~300 nM)”.

The record behind these values is patent US9872875B2, “Component and method for treating viral disease” (Institut Pasteur of Shanghai, Chinese Academy of Sciences, priority 2012, dated 2018).
